In patent publication US9051279B2, “Substituted isoquinolinones and quinazolinones” (Novartis AG, priority 2009, dated 2015) one finds solubility and stability data, which are given here for one compound.

The nature of the series: Solubility and stability of crystalline sulphate salt form I compared to free base amorphous form. In kind it is physicochemical. To be noted: compared to the free base amorphous form.

On to `COc1cc2c(cc1OC(C)C)[C@H](c1ccc(Cl)cc1)N(c1ccc(N(C)C[C@H]3CC[C@H](N4CCN(C)C(=O)C4)CC3)cc1)C(=O)C2.O=S(=O)(O)O` [(S)-1-(4-Chloro-phenyl)-7-isopropoxy-6-methoxy-2-(4-{methyl-[4-(4-methyl-3-oxo-piperazin-1-yl)-trans-cyclohexylmethyl]-amino}-phenyl)-1,4-dihydro-2H-isoquinolin-3-one sulphate salt], for which the solubility entry is “improvements” and the stability entry is listed as “improvements”.
